# Earlier results in patent US8916516B2, “Treatment of fungal and/or protist infections” (AI2 Limited, priority 2005, dated 2014).
# System: bacteria
# Details: reported by Azuma et al., Peptides 21: 327-330 (2000); cited from earlier work
substance,measurement,value
"apoE134-159: Azuma's apolipoprotein E peptide, 26 amino acids in length (RVRLASHLRKLRKRLLRDADDLQKRL; UniProt P02649 152-177, looked up, fragment)",antibacterial activity (in words),greatly reduced antibacterial activity
